Assay results from patent publication US9889144B2, “Abiraterone acetate formulation and methods of use” (iCeutica Inc., priority 2013, dated 2018).

Experiments:
[1] = Abiraterone acetate stability with and without milling, total impurities by HPLC; format: physicochemical; conditions: 80° C., 4 hrs
Description: The impurity growth in the DPI and tablets containing fine particle abiraterone acetate is due to oxidative degradation of abiraterone acetate. […] The faster degradation in tablets containing fine particle abiraterone acetate could arise from a number of sources, including, but not limited to: greater surface area of the API, higher proportion of excipient relative to the API, and differences in excipients.

[2] = cited from earlier work

Total impurities by HPLC ([1]; Milling none): 0.23 % AUC
Total impurities by HPLC ([1]; SPEX shaker mill): 0.17 % AUC
SMILES: CC(=O)O[C@H]1CC[C@@]2(C)C(=CC[C@@H]3[C@@H]2CC[C@]2(C)C(c4cccnc4)=CC[C@@H]32)C1 [Abiraterone Acetate (API), 17-(3-Pyridyl) androsta-5, acetate]
water solubility [2]: poorly water soluble
